Article PMC8162404, “Proteomimetic surface fragments distinguish targets by function” (Chemical Science, 2020)

Key:
CaM [1] = target: T1, CaM (Bos taurus, UniProt P62157); test: Pull-down assay with immobilized protein and LSM libraries; assay type: binding, bovine; conditions: H14 library; 1:2 stoichiometry assumed; read-out: Surface mapping KD (apparent)
T1 construct: made in house; host or cells: E. coli BL21 (DE3)
Method in brief: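 His-tagged protein immobilized on Co-NTA resin, equilibrated 30 min at room temperature with LSM sublibraries (64 members, […]), equimolar protein to total probe. CaM buffer: 20 mM HEPES pH 7.4, 150 mM NaCl, 5 mM CaCl2. Bound fractions from HPLC-MS loss of unbound probe versus protein-free resin control; Kd derived.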

Gal-1 [2] = target: T2, Gal-1 (Homo sapiens, UniProt P09382); test: Competition pull-down with lactose; assay type: binding; conditions: H14 library; lactose 10 mM; read-out: Surface mapping KD (apparent), competition
T2 construct: made in house; host or cells: E. coli BL21(DE3)
T2 sequence (P09382 whole entry): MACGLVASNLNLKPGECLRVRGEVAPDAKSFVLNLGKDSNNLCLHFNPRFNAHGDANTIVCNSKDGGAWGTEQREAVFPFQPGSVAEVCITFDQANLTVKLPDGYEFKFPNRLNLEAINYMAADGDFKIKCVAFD
Method in brief: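 His6-tagged proteins immobilized on Co-NTA resin at 64 µM final with 64-member LSM foldamer sublibraries (1 M each, as printed) in pH 7.4 HEPES/NaCl buffers (Ca2+/TCEP per target), 30 min RT; competitor peptides 200 µM final, lactose 10 mM for Gal-1. Bound fractions from LC-MS loss vs protein-free resin; KD assuming 1:1 binding.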

CaM [3] = target: T1, CaM; test: Competition pull-down with native ligand TRPV1-Ct15; assay type: binding, bovine; conditions: H14 library; competitor peptide 200 µM; read-out: Surface mapping KD (apparent), competition
S100B = target: T3, S100B (Homo sapiens, UniProt P04271); test: Pull-down assay with immobilized protein and LSM libraries; assay type: binding; conditions: H14 library; 1:1 binding assumed; read-out: Surface mapping KD (apparent)
T3 construct: made in house; host or cells: Escherichia coli BL21(DE3)
T3 sequence (P04271 1-92): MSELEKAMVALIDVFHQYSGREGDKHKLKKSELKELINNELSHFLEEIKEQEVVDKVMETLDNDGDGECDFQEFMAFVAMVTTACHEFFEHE
Method in brief: (§1)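 Buffers were HEPES pH 7.4 with 150 mM NaCl, plus 1 mM TCEP and 1 mM CaCl2 (50 mM HEPES) for S100A4 and S100B, 1 mM TCEP for Gal-1, and no additive for RecQ-WH. Immobilized protein at 64 µM was equilibrated 30 min with the LSM sublibrary, and unbound probes were measured by LC-MS.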

S100A4 = target: T4, S100A4 (Homo sapiens, UniProt P26447); test: as above; assay type: binding; conditions: H14 library; 1:1 binding assumed; read-out: Surface mapping KD (apparent)
T4 construct: made in house; host or cells: Escherichia coli BL21(DE3)
T4 sequence (P26447 whole entry): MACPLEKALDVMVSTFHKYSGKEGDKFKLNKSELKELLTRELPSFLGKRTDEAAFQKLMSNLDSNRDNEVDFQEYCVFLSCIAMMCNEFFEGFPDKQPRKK
Method in brief: as §1

Gal-1 [4] = target: T2, Gal-1; test: as above; assay type: binding; conditions: H14 library; 1:1 binding assumed; read-out: Surface mapping KD (apparent)
Method in brief: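 His-tagged protein immobilized on Co-NTA resin (64 µM) in 20 mM HEPES pH 7.4, 150 mM NaCl, equilibrated 30 min at room temperature with foldamer LSM sublibraries at equimolar total concentration. Unbound fractions quantified by HPLC-MS versus protein-free resin control; apparent KD assumes 1:1 binding.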

Structure (SMILES)	Kd (CaM [1]) [µM]	Kd (Gal-1 [2]) [µM]	Kd (CaM [3]) [µM]	Kd (S100B) [µM]	Kd (S100A4) [µM]	Kd (Gal-1 [4]) [µM]
CC[C@H](C)[C@@H](CC(=O)N[C@H]1CCCC[C@@H]1C(N)=O)NC(=O)[C@H]1CCCC[C@@H]1NC(=O)[C@H]1CCCC[C@@H]1NC(=O)C[C@H](CO)NC(=O)[C@H]1CCCC[C@@H]1N [H14 SI]	75	478	471	380	19	336
NC(=O)C[C@@H](CC(=O)N[C@H]1CCCC[C@@H]1C(=O)N[C@H]1CCCC[C@@H]1C(=O)N[C@H](CC(=O)N[C@H]1CCCC[C@@H]1C(N)=O)Cc1ccccc1)NC(=O)[C@H]1CCCC[C@@H]1N [H14 NF]	45	250	339	123		264
C[C@@H](O)[C@@H](CC(=O)N[C@H]1CCCC[C@@H]1C(=O)N[C@H]1CCCC[C@@H]1C(=O)N[C@@H](CCCNC(=N)N)CC(=O)N[C@H]1CCCC[C@@H]1C(N)=O)NC(=O)[C@H]1CCCC[C@@H]1N [H14 TR]	75	432	338	94	407	372
C[C@@H](O)[C@@H](CC(=O)N[C@H]1CCCC[C@@H]1C(=O)N[C@H]1CCCC[C@@H]1C(=O)N[C@H](CC(=O)N[C@H]1CCCC[C@@H]1C(N)=O)Cc1ccc(O)cc1)NC(=O)[C@H]1CCCC[C@@H]1N [H14 TY]	84	338	226	180		297
N=C(N)NCCC[C@@H](CC(=O)N[C@H]1CCCC[C@@H]1C(N)=O)NC(=O)[C@H]1CCCC[C@@H]1NC(=O)[C@H]1CCCC[C@@H]1NC(=O)C[C@H](CCC(N)=O)NC(=O)[C@H]1CCCC[C@@H]1N [H14 QR]	43	272	291	107	344	71
N=C(N)NCCC[C@@H](CC(=O)N[C@H]1CCCC[C@@H]1C(N)=O)NC(=O)[C@H]1CCCC[C@@H]1NC(=O)[C@H]1CCCC[C@@H]1NC(=O)C[C@H](CC(N)=O)NC(=O)[C@H]1CCCC[C@@H]1N [H14 NR]	58	247	434	128		114
CC(C)C[C@@H](CC(=O)N[C@H]1CCCC[C@@H]1C(N)=O)NC(=O)[C@H]1CCCC[C@@H]1NC(=O)[C@H]1CCCC[C@@H]1NC(=O)C[C@H](CC(N)=O)NC(=O)[C@H]1CCCC[C@@H]1N [H14 NL]	76	338	345		472	259
NCCCC[C@@H](CC(=O)N[C@H]1CCCC[C@@H]1C(N)=O)NC(=O)[C@H]1CCCC[C@@H]1NC(=O)[C@H]1CCCC[C@@H]1NC(=O)C[C@H](CC(N)=O)NC(=O)[C@H]1CCCC[C@@H]1N [H14 NK]	82	342	254	270		
CC[C@H](C)[C@@H](CC(=O)N[C@H]1CCCC[C@@H]1C(N)=O)NC(=O)[C@H]1CCCC[C@@H]1NC(=O)[C@H]1CCCC[C@@H]1NC(=O)C[C@H](CCC(N)=O)NC(=O)[C@H]1CCCC[C@@H]1N [H14 QI]	82	486	241		256	456
NC(=O)C[C@@H](CC(=O)N[C@H]1CCCC[C@@H]1C(=O)N[C@H]1CCCC[C@@H]1C(=O)N[C@H](CC(=O)N[C@H]1CCCC[C@@H]1C(N)=O)Cc1c[nH]c2ccccc12)NC(=O)[C@H]1CCCC[C@@H]1N [H14 NW]	38	185	269	98		169
CC(C)[C@@H](CC(=O)N[C@H]1CCCC[C@@H]1C(N)=O)NC(=O)[C@H]1CCCC[C@@H]1NC(=O)[C@H]1CCCC[C@@H]1NC(=O)C[C@H](CCCNC(=N)N)NC(=O)[C@H]1CCCC[C@@H]1N [H14 RV]	26	418	219	63	72	
CC[C@H](C)[C@@H](CC(=O)N[C@H]1CCCC[C@@H]1C(N)=O)NC(=O)[C@H]1CCCC[C@@H]1NC(=O)[C@H]1CCCC[C@@H]1NC(=O)C[C@H](CC(N)=O)NC(=O)[C@H]1CCCC[C@@H]1N [H14 NI]	80	323	283		472	258
C[C@@H](CC(=O)N[C@H]1CCCC[C@@H]1C(N)=O)NC(=O)[C@H]1CCCC[C@@H]1NC(=O)[C@H]1CCCC[C@@H]1NC(=O)C[C@@H](NC(=O)[C@H]1CCCC[C@@H]1N)[C@@H](C)O [H14 TA]	244	426	398		338	425
CSCC[C@@H](CC(=O)N[C@H]1CCCC[C@@H]1C(N)=O)NC(=O)[C@H]1CCCC[C@@H]1NC(=O)[C@H]1CCCC[C@@H]1NC(=O)C[C@H](CCC(N)=O)NC(=O)[C@H]1CCCC[C@@H]1N [H14 QM]	51	406	317		448	364
C[C@@H](O)[C@@H](CC(=O)N[C@H]1CCCC[C@@H]1C(N)=O)NC(=O)[C@H]1CCCC[C@@H]1NC(=O)[C@H]1CCCC[C@@H]1NC(=O)C[C@H](CO)NC(=O)[C@H]1CCCC[C@@H]1N [H14 ST]	215	413	307		323	
CC(C)C[C@@H](CC(=O)N[C@H]1CCCC[C@@H]1C(N)=O)NC(=O)[C@H]1CCCC[C@@H]1NC(=O)[C@H]1CCCC[C@@H]1NC(=O)C[C@H](CCC(N)=O)NC(=O)[C@H]1CCCC[C@@H]1N [H14 QL]	87	458	241		256	457
CSCC[C@@H](CC(=O)N[C@H]1CCCC[C@@H]1C(N)=O)NC(=O)[C@H]1CCCC[C@@H]1NC(=O)[C@H]1CCCC[C@@H]1NC(=O)C[C@H](CO)NC(=O)[C@H]1CCCC[C@@H]1N [H14 SM]	43	352	210		26	356
NC(=O)C[C@@H](CC(=O)N[C@H]1CCCC[C@@H]1C(=O)N[C@H]1CCCC[C@@H]1C(=O)N[C@@H](CC(=O)O)CC(=O)N[C@H]1CCCC[C@@H]1C(N)=O)NC(=O)[C@H]1CCCC[C@@H]1N [H14 ND]	211	294	471			229
CC(C)[C@@H](CC(=O)N[C@H]1CCCC[C@@H]1C(N)=O)NC(=O)[C@H]1CCCC[C@@H]1NC(=O)[C@H]1CCCC[C@@H]1NC(=O)C[C@H](CO)NC(=O)[C@H]1CCCC[C@@H]1N [H14 SV]	101	476	398		34	221
CC(C)[C@@H](CC(=O)N[C@H]1CCCC[C@@H]1C(N)=O)NC(=O)[C@H]1CCCC[C@@H]1NC(=O)[C@H]1CCCC[C@@H]1NC(=O)C[C@H](CC(N)=O)NC(=O)[C@H]1CCCC[C@@H]1N [H14 NV]	115	378	261		395	349
C[C@@H](O)[C@@H](CC(=O)N[C@H]1CCCC[C@@H]1C(=O)N[C@H]1CCCC[C@@H]1C(=O)N[C@@H](CO)CC(=O)N[C@H]1CCCC[C@@H]1C(N)=O)NC(=O)[C@H]1CCCC[C@@H]1N [H14 TS]	71	390	487			408
C[C@@H](O)[C@@H](CC(=O)N[C@H]1CCCC[C@@H]1C(=O)N[C@H]1CCCC[C@@H]1C(=O)N[C@@H](CCC(=O)O)CC(=O)N[C@H]1CCCC[C@@H]1C(N)=O)NC(=O)[C@H]1CCCC[C@@H]1N [H14 TE]	285	366	281			244
